This note sets out measurements from patent US8431593B2, “Heteroaryl amide derivatives” (H. Lundbeck A/S, priority 2006, dated 2013).

Structures are written as SMILES. Read-outs that look alike come from different tables or passages of the source. A value given as a limit tells only on which side of the number the result lay.

The target of the assay is T1, P2X7 receptor (Homo sapiens, UniProt Q99572).
T1 construct: host or cells: SH-SY5Y
T1 sequence (Q99572 1-595): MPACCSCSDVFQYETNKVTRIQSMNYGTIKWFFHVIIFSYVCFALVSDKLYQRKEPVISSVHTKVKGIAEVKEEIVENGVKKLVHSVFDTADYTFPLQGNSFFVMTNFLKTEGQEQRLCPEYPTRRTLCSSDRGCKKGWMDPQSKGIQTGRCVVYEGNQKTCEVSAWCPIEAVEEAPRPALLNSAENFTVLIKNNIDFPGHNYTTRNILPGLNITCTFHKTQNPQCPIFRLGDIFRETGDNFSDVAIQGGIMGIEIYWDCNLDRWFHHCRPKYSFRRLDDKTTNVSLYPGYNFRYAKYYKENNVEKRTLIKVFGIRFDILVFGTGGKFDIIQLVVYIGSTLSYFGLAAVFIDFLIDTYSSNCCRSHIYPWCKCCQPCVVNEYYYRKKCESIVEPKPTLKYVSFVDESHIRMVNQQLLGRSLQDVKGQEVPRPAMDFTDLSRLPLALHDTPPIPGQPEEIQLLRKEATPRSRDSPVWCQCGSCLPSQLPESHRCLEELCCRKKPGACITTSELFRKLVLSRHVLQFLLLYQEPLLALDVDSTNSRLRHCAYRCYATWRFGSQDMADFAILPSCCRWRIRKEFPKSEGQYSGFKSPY
Description: P2X7 calcium mobilization assay, high throughput, antagonist activity (Example 4A). Format: cell-based. Conditions: read-out: IC50. As for the experimental part:
One day prior to the experiment, cells are plated at a density of 100,000 cells/well in a 96 well black/clear TC plate (Corning® Costar®, Sigma-Aldrich Co., St. Louis, Mo.). […] After one hour dye incubation, wells are rinsed once with 50 μL assay solution, and are then incubated for an hour at room temperature with 100 μL assay solution containing the test compound. […] After the one hour incubation, plates are transferred to a FLIPR^TETRA instrument (Molecular Devices, Sunnyvale, Calif.) for calcium mobilization analysis.
First, the average maximum relative fluorescent unit (RFU) response from the negative control wells (no agonist) is subtracted from the maximum response detected for each of the other experimental wells. Second, average maximum RFU response is calculated for the positive control wells (agonist wells).
On the technique in general: A change in cytosolic calcium serves as a functional read-out for many receptors and channels.

[1] abbreviates: fluorescence response of cells exposed to 80 μM 2′(3′)-O-(4-benzoyl-benzoyl)adenosine 5′-triphosphate, Example 4A.
[2] abbreviates: 50% decrease in the fluorescence response of cells exposed to 80 μM 2′(3′)-O-(4-benzoyl-benzoyl)adenosine 5′-triphosphate, Example 4A.
Where [3] appears, read: 50% decrease in the fluorescence response of cells exposed to 80 μM of 2′(3′)-O-(4-benzoyl-benzoyl)adenosine 5′-triphosphate, determined as in Example 4A.
Where [4] appears, read: SH-SY5Y cells, 50% decrease in fluorescence response to 80 μM BzATP.
[5] abbreviates: 50% decrease in the fluorescence response of cells exposed to 80 μM of 2′(3′)-O-(4-benzoyl-benzoyl)adenosine 5′-triphosphate, Example 4A.

As to `C[C@@H]1COC[C@H](C)N1Cc1cn2c(C(=O)NCC34CC5CC(CC(C5)C3)C4)cccc2n1` (relative stereo) [Compound 343, rel-N-(adamantan-l-ylmethy)-2-{[(3R, 5S)-3,5-dimethylmorpholin-4-yl]methyl}imidazo[1,2-a]pyridine-5-carboxamide], under setting [1], the IC50 is under 2 µM.

On to `CC1(C)C2CC[C@H](CNC(=O)c3cccc4nc(C(=O)N5CCC[C@@H](N)C5)cn34)C1C2` (relative stereo) [Compound 548, rel-2-{[(3R)-3-aminopiperidin-1-yl]carbonyl}-N-{[(2S)-6,6-dimethylbicyclo[3.1.1]hept-2-yl]methyl}imidazo[1,2-a]pyridine-5-carboxamide], for which the IC50 under setting [2] was under 2 µM.

Regarding `CC1(C)C2CC[C@H](CNC(=O)c3cccc4nc(CC(=O)N5CC[C@@H](N)C5)cn34)C1C2` (relative stereo) [Compound 549, rel-2-{2-[(3R)-3-aminopyrrolidin-1-yl]-2-oxoethyl}-N-{[(2S)-6,6-dimethylbicyclo[3.1.1]hept-2-yl]methyl}imidazo[1,2-a]pyridine-5-carboxamide], the IC50 under setting [2] is under 2 µM.

On to `CC1(C)C2CC[C@H](CNC(=O)c3cccc4nc(CC(=O)N5CCC[C@@H](N)C5)cn34)C1C2` (relative stereo) [Compound 550, rel-2-{2-[(3R)-3-aminopiperidin-1-yl]-2-oxoethyl}-N-{[(2S)-6,6-dimethylbicyclo[3.1.1]hept-2-yl]methyl}imidazo[1,2-a]pyridine-5-carboxamide], for which, under setting [2], the IC50 was under 2 µM.

Take `O=C(NCC12CC3CC(CC(C3)C1)C2)c1cccc2nc([C@H]3CCCC[C@H]3C(=O)O)cn12` (relative stereo) [Compound 995, rel-(1R,2S)-2-{5-[(adamantan-1-ylmethyl)carbamoyl]imidazo[1,2-a]pyridin-2-yl} cyclohexane-carboxylic acid]: the IC50 under setting [3] is under 2 µM.

As to `CCOC(=O)[C@@H]1CCCC[C@@H]1c1cn2c(C(=O)NCC34CC5CC(CC(C5)C3)C4)cccc2n1` (relative stereo) [Compound 996, ethyl rel-(1R,2S)-2-{5-[(adamantan-1-ylmethyl)carbamoyl]imidazo[1,2-a]pyridin-2-yl} cyclohexane-carboxylate], the IC50 under setting [3] was under 2 µM.

`CC(C)C(=O)N[C@@H]1CCN(Cc2cn3c(C(=O)NCC45CC6CC(CC(C6)C4)C5)cccc3n2)C1` (stereo in doubt) [Compound 71, N-(adamantan-1-ylmethyl)-2-{[3-(isobutyryl-amino)pyrrolidin-1-yl]methyl}imidazo[1,2-a]pyridine-5-carboxamide]: the IC50 under setting [4] is under 2 µM.

Take `N[C@H]1CCN(C(=O)Cc2cn3c(C(=O)NCC45CC6CC(CC(C6)C4)C5)cccc3n2)C1` (stereo in doubt) [Compound 144, N-(adamantan-1-ylmethyl)-2-[2-(3-aminopyrrolidin-1-yl)-2-oxoethyl]imidazo[1,2-a]pyridine-5-carboxamide]: the IC50 under setting [4] is under 2 µM.

`CC1(C)[C@H]2CC[C@@H](CNC(=O)c3cccc4nc(C(=O)N5C[C@H]6CC5CN6)cn34)[C@@H]1C2` (stereo in doubt) [Compound 302, 2-[(1R,4R)-2,5-diazabicyclo[2.2.1]hept-2-ylcarbonyl]-N-{[(1S,2R,5S)-6,6-dimethylbicyclo[3.1.1]hept-2-yl]methyl}imidazo[1,2-a]pyridine-5-carboxamide]: the IC50 under setting [1] was under 2 µM.

Consider `CC1(C)[C@H]2CC[C@@H](CNC(=O)c3cccc4nc(C(=O)N5C[C@@H]6CC5CN6)cn34)[C@@H]1C2` (stereo in doubt) [Compound 303, 2-[(1S,4S)-2,5-diazabicyclo[2.2.1]hept-2-ylcarbonyl]-N-{[(1S,2R,5S)-6,6-dimethylbicyclo[3.1.1]hept-2-yl]methyl}imidazo[1,2-a]pyridine-5-carboxamide], for which the IC50 under setting [1] is under 2 µM.

On to `CC1(C)[C@@H]2CC[C@@H](CNC(=O)c3cccc4nc(CC(=O)N5C[C@H]6CC5CN6)cn34)[C@H]1C2` (stereo in doubt) [Compound 558, 2-{2-[(1R,4R)-2,5-diazabicyclo[2.2.1]hept-2-yl]-2-oxoethyl}-N-{[(1R,2R,5R)-6,6-dimethylbicyclo [3.1.1]hept-2-yl]methyl}imidazo[1,2-a]pyridine-5-carboxamide], for which, under setting [2], the IC50 is under 2 µM.

Turning to `CC1(C)C2CC[C@H](CNC(=O)c3cccc4nc(CC(=O)O)cn34)C1C2` (stereo in doubt) [Compound 682, (5-{[(6,6-dimethylbicyclo[3.1.1]hept-2-yl)methyl]carbamoyl}imidazo[1,2-a]pyridin-2-yl)acetic acid], the IC50 under setting [5] is under 2 µM.

On to `CC(C)CC(CNC(=O)c1cccc2nc(CN3CC[C@@H](NC(=O)OC(C)(C)C)C3)cn12)C1CCCCC1` (stereo in doubt) [Compound 738, tert-butyl [1-({5-[(2-cyclohexyl-4-methylpentyl)carbamoyl]imidazo [1,2-a]pyridin-2-yl}methyl)pyrrolidin-3-yl]carbamate], for which the IC50 under setting [5] was under 2 µM.

`CC(C)N[C@@H]1CCN(C(=O)c2cn3c(NC(=O)CC45CC6CC(CC(C6)C4)C5)cccc3n2)C1` (stereo in doubt) [Compound 743, 2-adamantan-1-yl-N-(2-{[3-(isopropylamino)pyrrolidin-1-yl]carbonyl}imidazo[1,2-a]pyridin-5-yl)acetamide]: the IC50 under setting [5] was under 2 µM.

With `CC(C(=O)N1CC[C@@H](NC(=O)OC(C)(C)C)C1)c1cn2c(C(=O)NCC34CC5CC(CC(C5)C3)C4)cccc2n1` (stereo in doubt) [Compound 749, tert-butyl [1-(2-{5-[(adamantan-1-ylmethyl)carbamoyl]imidazo[1,2-a]pyridin-2-yl}propanoyl)pyrrolidin-3-yl]carbamate], the IC50 under setting [5] is under 2 µM.

Turning to `CC(C(=O)N1CCC[C@@H](NC(=O)OC(C)(C)C)C1)c1cn2c(C(=O)NCC34CC5CC(CC(C5)C3)C4)cccc2n1` (stereo in doubt) [Compound 750, tert-butyl [1-(2-{5-[(adamantan-1-ylmethyl)carbamoyl]imidazo[1,2-a]pyridin-2-yl}propanoyl)piperidin-3-yl]carbamate], the IC50 under setting [5] was under 2 µM.

Consider `CC(C)CC(CNC(=O)c1cccc2nc(CN3CC[C@@H](N)C3)cn12)c1ccc(C(F)(F)F)cc1` (stereo in doubt) [Compound 763, 2-[(3-aminopyrrolidin-1-yl)methyl]-N-{4-methyl-2-[4-(trifluoromethyl)phenyl]pentyl}imidazo [1,2-a] pyridine-5-carboxamide], for which the IC50 under setting [5] was under 2 µM.

As for `CC(C)(C)OC(=O)N[C@@H]1CCN(Cc2cn3c(C(=O)NCC(CC4CC4)c4ccccc4)cccc3n2)C1` (stereo in doubt) [Compound 776, tert-butyl [1-({5-[(3-cyclopropyl-2-phenylpropyl)carbamoyl]imidazo[1,2-a]pyridin-2-yl}methyl)pyrrolidin-3-yl]carbamate], under setting [5], the IC50 is under 2 µM.

With `CC(C)(C)OC(=O)N[C@@H]1CCN(Cc2cn3c(C(=O)NCC(CC4CCC4)c4ccccc4)cccc3n2)C1` (stereo in doubt) [Compound 777, tert-butyl [1-({5-[(3-cyclobutyl-2-phenylpropyl)carbamoyl]imidazo[1,2-a]pyridin-2-yl}methyl)pyrrolidin-3-yl]carbamate], the IC50 under setting [5] is under 2 µM.

As usually defined, the IC50 is the concentration that inhibits the measured activity by half.
